Reference: patent US9556153B1, “JAK1 inhibitors” (Eli Lilly and Company, priority 2015, dated 2017)

Assays:
[1] = tested on: Ba/F3 cells expressing human mtJAK1 (S729C); assay: BaF3 Mutant JAK-1 (S729C) Clone 12 Proliferation Assay; type: cell-based, Murine; settings: BaF3, 72 h; 3 day incubation, Cell Titer Glo; n=4
Experimental: BaF3 Mutant JAK-1 (S729C) Clone 12 Proliferation Assay
The purpose of this assay is to determine the inhibitory activity of JAK-1 specific inhibitors using the BaF3 mutant JAK-1 (S729C) Clone 12 proliferation assay.
mtJAK1 (S729C) expressing cell line is created by transducing Ba/F3 cells (Murine pro-B-cells) with a retrovirus expressing human mtJAK1 (S729C)-pQCXIN vector DNA. Single cell cloning is performed to select Ba/F3 cells expressing highest levels of mtJAK1 (S729C) by serial dilution. BaF3 mutant JAK-1 (S729C) suspension cells are cultured and maintained in (Gibco RPMI 1640 cat# A10491-01) containing 10% Hi-FBS (Hyclone cat#10082-047), 1 μg/ml puromycin dihydrochloride (Sigma cat#9620), 1.0 mg/mL G418 sulfate (Corning ref#30-234-CI), referred to as R10+ from now on.
Proliferation assays are performed in culture medium without selection and from now on will be referred to as (R10−). Briefly, cultured cells are decanted, centrifuged and reconstituted in 10 mL of R10− and counted using a Beckman Coulter Vi-Cell. Cells are further diluted to 2e4/mL in R10− and plated in a 96 well white opaque assay plates (Costar cat#3610) at 1×10^3 cells (50 μls) per well. […] Luminescence is then read on a Perkin Elmer Victor2 using a preset program for luminescence at 0.1 second. […]

[2] = tested on: pSTAT3 expression in the H1975 xenograft; assay: pSTAT3 Rat IVTI (JAK1) Assay, H1975 xenograft; type: in vivo; settings: single oral dose, two hours, n=1
Experimental: pSTAT3 Rat IVTI (JAK1) Assay
The purpose of this assay is to measure the ability of test compounds to inhibit the pSTAT3 expression in the H1975 xenograft rat model. Grow H1975 cells according to ATCC specifications at the lowest possible passage number available. Culture and maintain cells in RPMI-1640 supplemented with 10% FBS and incubated at 37° C. in 5% CO2. Harvest cells by standard techniques and mix with BD Biosciences basement membrane matrix (MATRIGEL®) to achieve a 1:1 cell/matrix ratio yielding an inoculation volume of 0.2 mL cell/matrix suspension containing 2e6 cells. Keep cell suspensions on ice throughout the inoculation procedure and start implantations within one hour after cell culture harvest. […] Time course studies are a single dose administered at the TED70 determined from the dose response study. […]
Harvest and cut tumors to yield approximately 200-250 mm^3 size fragments and immediately drop into a 12×75 mm tube containing 1 mL of ice cold MSD Tris Lysis buffer (Meso Scale Discovery cat# R60TX-2) and 1×HALT (Thermo Scientific product #1861281). […] Cool plate to RT and measure absorbance at or near 562 nm on Molecular Devices Spectra Max. Protein concentrations for each sample are determined using SoftMax Pro 6.3 software program. After tumor samples are quantitated, freeze at −80° C. in the 96 well polypropylene plate and assay at a later date. […]

IC50 [1]: 956 nM
SMILES: Cc1cc(Nc2cc(O[C@H]3CC[C@@H](NC[C@@H](O)C(F)(F)F)CC3)cc3c2ncn3C)nn1C [Example 1, (2R)-3-{[cis-4-({4-[(1,5-Dimethyl-1H-pyrazol-3-yl)amino]-1-methyl-1H-benzimidazol-6-yl}oxy)cyclohexyl]amino}-1,1,1-trifluoropropan-2-ol]
TEC50 (plasma concentration required to achieve 50% pSTAT3 inhibition) [2]: 3.9 μM | TED50 (dose necessary to achieve 50% pSTAT3 inhibition) [2]: 9 mg/kg
